Results as given in patent US20250368627A1, “PYRAZOLESULFONAMIDES AS ANTITUMOR AGENTS” (Peloton Therapeutics, Inc., a fully owned subsidiary of …, priority 2019, published 2025).

Experiments:
[1] = test system: HCT116 human colorectal carcinoma cells; assay: CellTiter-Glo Luminescent Cell Viability Assay; type: cell-based; conditions: HCT-116, 72 h, 3 days
Summary of the method: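 HCT116 cells were exposed for 3 days to compound in triplicate at final concentrations of 5 to 0.0002 […] (1:3 dilutions). Viability was read by CellTiter-Glo luminescence, and IC50 values were calculated.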

[2] = target: T1, DDB1DB/DCAF15 and RBM39 R1R2 complex (Homo sapiens, UniProt Q14498+Q66K64); assay: DCAF15 RBM39 Complex Formation Assay (FRET); type: binding; conditions: FRET ratio Em 665/Em 615, incubated overnight at 4° C.
T1 construct: Amino acids 150 to 331 of RBM39 were cloned into pGEX4T3; GST (from vector pGEX4T3); TEV cleavage site (N); made in house; host or cells: DDB1DB/His-DCAF15: baculovirus/Sf9 co-expression; RBM39 R1R2: E. coli (pGEX4T3)
T1 sequence (Q66K64 whole entry, the tested form may be a part): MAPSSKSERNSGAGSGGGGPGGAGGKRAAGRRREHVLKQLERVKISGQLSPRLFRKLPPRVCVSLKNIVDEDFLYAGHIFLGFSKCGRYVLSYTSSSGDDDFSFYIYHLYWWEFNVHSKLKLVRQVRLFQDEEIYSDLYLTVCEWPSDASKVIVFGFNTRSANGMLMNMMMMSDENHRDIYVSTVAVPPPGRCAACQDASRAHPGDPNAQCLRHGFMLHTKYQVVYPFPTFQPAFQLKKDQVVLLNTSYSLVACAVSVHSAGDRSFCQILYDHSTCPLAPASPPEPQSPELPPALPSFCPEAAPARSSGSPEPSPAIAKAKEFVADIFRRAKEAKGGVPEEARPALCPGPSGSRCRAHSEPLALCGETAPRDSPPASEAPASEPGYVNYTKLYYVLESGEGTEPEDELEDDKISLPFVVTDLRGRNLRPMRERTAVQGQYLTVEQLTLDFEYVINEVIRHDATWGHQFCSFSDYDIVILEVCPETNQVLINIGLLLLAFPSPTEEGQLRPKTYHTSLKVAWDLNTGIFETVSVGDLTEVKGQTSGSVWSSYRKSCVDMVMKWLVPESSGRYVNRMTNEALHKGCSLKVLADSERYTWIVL
T1 sequence (Q14498 150-331): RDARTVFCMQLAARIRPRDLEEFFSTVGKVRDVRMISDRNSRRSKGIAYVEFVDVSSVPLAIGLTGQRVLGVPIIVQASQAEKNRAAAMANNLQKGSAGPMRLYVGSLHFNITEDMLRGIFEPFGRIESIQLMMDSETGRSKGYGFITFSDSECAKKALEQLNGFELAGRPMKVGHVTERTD
T1 sequence (Q16531 with tags, fused parts or gaps DEL396-708 partner): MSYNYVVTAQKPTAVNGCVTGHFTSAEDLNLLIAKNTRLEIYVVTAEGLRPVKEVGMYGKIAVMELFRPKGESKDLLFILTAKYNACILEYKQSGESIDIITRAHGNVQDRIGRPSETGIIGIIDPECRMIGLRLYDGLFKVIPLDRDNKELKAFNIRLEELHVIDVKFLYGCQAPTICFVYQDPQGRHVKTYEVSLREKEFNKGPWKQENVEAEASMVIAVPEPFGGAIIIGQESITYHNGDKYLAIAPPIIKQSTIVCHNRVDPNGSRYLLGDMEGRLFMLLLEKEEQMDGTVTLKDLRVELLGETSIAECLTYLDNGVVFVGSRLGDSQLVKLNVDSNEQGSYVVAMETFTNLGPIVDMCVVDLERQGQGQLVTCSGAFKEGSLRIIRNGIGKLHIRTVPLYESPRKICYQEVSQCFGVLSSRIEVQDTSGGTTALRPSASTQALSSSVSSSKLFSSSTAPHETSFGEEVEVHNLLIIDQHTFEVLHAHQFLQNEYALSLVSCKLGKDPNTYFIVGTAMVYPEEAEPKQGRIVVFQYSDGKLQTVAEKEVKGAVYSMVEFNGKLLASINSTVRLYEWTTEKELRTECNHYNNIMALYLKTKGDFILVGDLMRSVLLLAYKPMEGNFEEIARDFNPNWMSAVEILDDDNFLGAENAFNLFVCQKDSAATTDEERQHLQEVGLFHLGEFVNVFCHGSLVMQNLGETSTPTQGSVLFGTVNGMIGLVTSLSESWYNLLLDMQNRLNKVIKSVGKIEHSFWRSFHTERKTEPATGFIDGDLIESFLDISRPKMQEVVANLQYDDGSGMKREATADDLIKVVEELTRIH
Summary of the method: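 Ternary complex formation read by TR-FRET (Em 665/615, excitation 340 nm) after overnight incubation at 4° C of 20 nM baculovirus DDB1DB/His-DCAF15 and 50 nM E. coli RBM39 RRM1-RRM2 FLAG fragment with 14-point, 3-fold compound dilutions from 1 μM; EC50 from 4-parameter fit.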

| EC50 [1] [nM] | IC50 [2] [nM] | Structure (SMILES) |
| --- | --- | --- |
| 250 to 1000 | < 250 | C[C@@H](CO)n1cc(S(=O)(=O)Nc2ccc(F)c3c(C#N)c[nH]c23)cn1 [Compound 267, N-(3-cyano-4-fluoro-1H-indol-7-yl)-1-[(1S)-2-hydroxy-1-methyl-ethyl]pyrazole-4-sulfonamide] |
| < 250 | < 250 | Cc1ccc(NS(=O)(=O)c2cnn(C3(CO)CC3)c2)c2[nH]cc(C#N)c12 [Compound 268, N-(3-cyano-4-methyl-1H-indol-7-yl)-1-[1-(hydroxymethyl)cyclopropyl]pyrazole-4-sulfonamide] |
| 250 to 1000 | < 250 | N#Cc1c[nH]c2c(NS(=O)(=O)c3cnn(C4(CO)CC4)c3)ccc(Cl)c12 [Compound 269, N-(4-chloro-3-cyano-1H-indol-7-yl)-1-[1-(hydroxymethyl)cyclopropyl]pyrazole-4-sulfonamide] |
| 250 to 1000 | < 250 | Cc1ccc(NS(=O)(=O)c2cnn(CCC(C)O)c2)c2[nH]cc(C#N)c12 (stereo not shown) [Compound 270, N-(3-cyano-4-methyl-1H-indol-7-yl)-1-(3-hydroxybutyl)pyrazole-4-sulfonamide] |
| < 250 | < 250 | CCn1ncc(S(=O)(=O)Nc2ccc(C)c3c(C#N)c[nH]c23)c1N [Compound 271, 5-amino-N-(3-cyano-4-methyl-1H-indol-7-yl)-1-ethyl-pyrazole-4-sulfonamide] |
| 250 to 1000 | < 250 | CCn1ncc(S(=O)(=O)Nc2ccc(F)c3c(C#N)c[nH]c23)c1N [Compound 272, 5-amino-N-(3-cyano-4-fluoro-1H-indol-7-yl)-1-ethyl-pyrazole-4-sulfonamide] |
| < 250 | < 250 | CCn1ncc(S(=O)(=O)Nc2ccc(Cl)c3c(C#N)c[nH]c23)c1N [Compound 273, 5-amino-N-(4-chloro-3-cyano-1H-indol-7-yl)-1-ethyl-pyrazole-4-sulfonamide] |
| < 250 | < 250 | Cc1ccc(NS(=O)(=O)c2cnn([C@H](C)[C@H](C)O)c2)c2[nH]cc(C#N)c12 [Compound 274, N-(3-cyano-4-methyl-1H-indol-7-yl)-1-[(1R,2S)-2-hydroxy-1-methyl-propyl]pyrazole-4-sulfonamide] |
| 250 to 1000 | < 250 | C[C@H](O)[C@@H](C)n1cc(S(=O)(=O)Nc2ccc(Cl)c3c(C#N)c[nH]c23)cn1 [Compound 275, N-(4-chloro-3-cyano-1H-indol-7-yl)-1-[(1R,2S)-2-hydroxy-1-methyl-propyl]pyrazole-4-sulfonamide] |
| 250 to 1000 | < 250 | Cc1ccc(NS(=O)(=O)c2cnn(CC(C)(C)O)c2Cl)c2[nH]cc(C#N)c12 [Compound 276, 5-chloro-N-(3-cyano-4-methyl-1H-indol-7-yl)-1-(2-hydroxy-2-methyl-propyl)pyrazole-4-sulfonamide] |
| < 250 | < 250 | Cc1ccc(NS(=O)(=O)c2cnn(CC(F)F)c2N)c2[nH]cc(C#N)c12 [Compound 277, 5-amino-N-(3-cyano-4-methyl-1H-indol-7-yl)-1-(2,2-difluoroethyl)pyrazole-4-sulfonamide] |
| < 250 | < 250 | N#Cc1c[nH]c2c(NS(=O)(=O)c3cnn(CC(F)F)c3N)ccc(Cl)c12 [Compound 278, 5-amino-N-(4-chloro-3-cyano-1H-indol-7-yl)-1-(2,2-difluoroethyl)pyrazole-4-sulfonamide] |
| 250 to 1000 | < 250 | N#Cc1c[nH]c2c(NS(=O)(=O)c3cnn(CC(F)F)c3N)ccc(F)c12 [Compound 279, 5-amino-N-(4-cyano-4-fluoro-1H-indol-7-yl)-1-(2,2-difluoroethyl)pyrazole-4-sulfonamide] |
| > 1000 | < 250 | CC(C)(O)Cn1ncc(S(=O)(=O)Nc2ccc(F)c3c(C#N)c[nH]c23)c1Cl [Compound 280, 5-chloro-N-(3-cyano-4-fluoro-1H-indol-7-yl)-1-(2-hydroxy-2-methyl-propyl)pyrazole-4-sulfonamide] |
| < 250 | < 250 | Cc1ccc(NS(=O)(=O)c2cnn([C@H](C)CF)c2)c2[nH]cc(C#N)c12 [Compound 281, N-(3-cyano-4-methyl-1H-indol-7-yl)-1-[(1R)-2-fluoro-1-methyl-ethyl]pyrazole-4-sulfonamide] |
| 250 to 1000 | < 250 | Cn1ncc(S(=O)(=O)Nc2ccc(F)c3c(C#N)c[nH]c23)c1N [Compound 282, 5-amino-N-(3-cyano-4-fluoro-1H-indol-7-yl)-1-methyl-pyrazole-4-sulfonamide] |

Continued, compound first:

| Structure (SMILES) | EC50 [1] [nM] | IC50 [2] [nM] |
| --- | --- | --- |
| CC(C)(CO)n1ncc(S(=O)(=O)Nc2ccc(Cl)c3c(C#N)c[nH]c23)c1Cl [Compound 250, 5-chloro-N-(4-chloro-3-cyano-1H-indol-7-yl)-1-(2-hydroxy-1,1-dimethyl-ethyl)pyrazole-4-sulfonamide] | < 250 | < 250 |
| CC(C)(CO)n1ncc(S(=O)(=O)Nc2cccc3c(C#N)c[nH]c23)c1Cl [Compound 251, 5-chloro-N-(3-cyano-1H-indol-7-yl)-1-(2-hydroxy-1,1-dimethyl-ethyl)pyrazole-4-sulfonamide] | 250 to 1000 | < 250 |
| Cc1ccc(NS(=O)(=O)c2cn(C(C)(C)CO)nc2Cl)c2[nH]cc(C#N)c12 [Compound 252, 3-chloro-N-(3-cyano-4-methyl-1H-indol-7-yl)-1-(2-hydroxy-1,1-dimethyl-ethyl)pyrazole-4-sulfonamide] | 250 to 1000 | < 250 |
| CC(C)(CO)n1cc(S(=O)(=O)Nc2cccc3c(C#N)c[nH]c23)c(Cl)n1 [Compound 253, 3-chloro-N-(3-cyano-1H-indol-7-yl)-1-(2-hydroxy-1,1-dimethyl-ethyl)pyrazole-4-sulfonamide] | > 1000 | < 250 |
| CC(C)(C)OC(=O)N1CC(F)(Cn2cc(S(=O)(=O)Nc3ccc(Cl)c4c(C#N)c[nH]c34)cn2)C1 [Compound 254, tert-butyl 3-[[4-[(4-chloro-3-cyano-1H-indol-7-yl)sulfamoyl]pyrazol-1-yl]methyl]-3-fluoro-azetidine-1-carboxylate] | 250 to 1000 | < 250 |
| Cc1ccc(NS(=O)(=O)c2cnn(CC3(F)CN(C(=O)OC(C)(C)C)C3)c2)c2[nH]cc(C#N)c12 [Compound 255, tert-butyl 3-[[4-[(3-cyano-4-methyl-1H-indol-7-yl)sulfamoyl]pyrazol-1-yl]methyl]-3-fluoro-azetidine-1-carboxylate] | 250 to 1000 | < 250 |
| N#Cc1c[nH]c2c(NS(=O)(=O)c3cnn(CC4(F)CNC4)c3)ccc(Cl)c12 [Compound 256, N-(4-chloro-3-cyano-1H-indol-7-yl)-1-[(3-fluoroazetidin-3-yl)methyl]pyrazol-4-sulfonamide] | > 1000 | < 250 |
| Cc1ccc(NS(=O)(=O)c2cnn(CC3(F)CNC3)c2)c2[nH]cc(C#N)c12 [Compound 257, N-(3-cyano-4-methyl-1H-indol-7-yl)-1-[(3-fluoroazetidin-3-yl)methyl]pyrazole-4-sulfonamide] | 250 to 1000 | < 250 |
| Cc1ccc(NS(=O)(=O)c2cnn(CC(C)(C)CO)c2)c2[nH]cc(C#N)c12 [Compound 258, N-(3-cyano-4-methyl-1H-indol-7-yl)-1-(3-hydroxy-2,2-dimethylpropyl)-1H-pyrazole-4-sulfonamide] | < 250 | < 250 |
| CC(C)(CO)n1cc(S(=O)(=O)Nc2ccc(Cl)c3c(C#N)c[nH]c23)c(Cl)n1 [Compound 260, 3-chloro-N-(4-chloro-3-cyano-1H-indol-7-yl)-1-(2-hydroxy-1,1-dimethyl-ethyl)pyrazole-4-sulfonamide] | > 1000 | < 250 |
| CC(C)(CO)n1cc(S(=O)(=O)Nc2ccc(F)c3c(C#N)c[nH]c23)c(Cl)n1 [Compound 261, 3-chloro-N-(3-cyano-4-fluoro-1H-indol-7-yl)-1-(2-hydroxy-1,1-dimethyl-ethyl)pyrazole-4-sulfonamide] | > 1000 | < 250 |
| COCC(CO)n1cc(S(=O)(=O)Nc2ccc(Cl)c3c(C#N)c[nH]c23)cn1 (stereo not shown) [Compound 262, N-(4-chloro-3-cyano-1H-indol-7-yl)-1-[1-(hydroxymethyl)-2-methoxy-ethyl]pyrazole-4-sulfonamide] | 250 to 1000 | < 250 |
| COCC(CO)n1cc(S(=O)(=O)Nc2ccc(C)c3c(C#N)c[nH]c23)cn1 (stereo not shown) [Compound 263, N-(3-cyano-4-methyl-1H-indol-7-yl)-1-[1-(hydroxymethyl)-2-methoxy-ethyl]pyrazole-4-sulfonamide] | 250 to 1000 | < 250 |
| Cc1ccc(NS(=O)(=O)c2cnn(C[C@@H](C)CO)c2)c2[nH]cc(C#N)c12 [Compound 264, N-(3-cyano-4-methyl-1H-indol-7-yl)-1-[(2R)-3-hydroxy-2-methyl-propyl]pyrazole-4-sulfonamide] | < 250 | < 250 |
| C[C@@H](CO)Cn1cc(S(=O)(=O)Nc2ccc(Cl)c3c(C#N)c[nH]c23)cn1 [Compound 265, N-(4-chloro-3-cyano-1H-indol-7-yl)-1-[(2R)-3-hydroxy-2-methyl-propyl]pyrazole-4-sulfonamide] | 250 to 1000 | < 250 |
| C[C@@H](CO)n1cc(S(=O)(=O)Nc2ccc(Cl)c3c(C#N)c[nH]c23)cn1 [Compound 266, N-(4-chloro-3-cyano-1H-indol-7-yl)-1-[(1S)-2-hydroxy-1-methyl-ethyl]pyrazole-4-sulfonamide] | 250 to 1000 | < 250 |
